Eight molecules from patent US10118922B2 (Janssen Pharmaceutica NV, priority 2013, dated 2018) can be followed below.

SMILES strings stand for the structures.

For test [1], the system named is C57B16 mice on a high fat diet. Put plainly: GPR120 DIO mice OGTT screening. In kind it is in vivo, mouse. The settings on record: dosed 30 min prior to glucose PO. The method, then:
18-22 week old, C57B16 mice on a high fat diet (60% HFD) for 12-16 weeks (ave. body weight ˜37-41 g) were fasted for 6 hr, with removal of food occurring at 7 am on the morning of the study. The animals were sorted into treatment groups the day before the study by body weight. Animals outside the bounds of ˜30-50 g were left out of the study. The animals had been handled and shammed a total of 5-8 days (1-3 days immediately prior to the study). Glucose (in 1 mL syringes) was drawn up the morning of the study. Test compounds were kept spinning and were only drawn into 1 ml syringes prior to study commencement. Animals were bled via tail snip to determine basal glucose levels prior to dosing of treatments. An Ascensia BREEZE Blood Glucose Monitoring System by Bayer was used for determining glucose levels.
Animals were moved into the testing room at ˜9-11 am, to yield them time to acclimate. The bleeds and dosing started at approximately 1 pm in 30-second intervals per animal. All groups were dosed 30 minutes prior to glucose administration at a dose volume of 10 ml/kg (the dose volume was calculated separately for each individual animal). Test compounds were administered at one or more of the following dosages: 0.1 mg/kg, 0.3 mg/kg, 1 mg/kg, 3 mg/kg and 10 mg/kg.
Thirty minutes after the first dose (with test compound) animals were bled again for a second baseline, or T=0, and immediately dosed with glucose (20% solution; TEKNOVA, 250 ml sterile bottle w/ catalogue number G0525) via a PO injection. The exact dose volume for glucose was also calculated separately for each individual animal.
Blood glucose was measured at 15, 30, 45, 60, and 90 minutes post-glucose administration via the snipped tail. If an animal reached a value of “HI”, the upper limit of the glucometer (600 mg/dl) was substituted as the blood glucose value and the study was analyzed as normal with no exclusions. If 50% or more of any treatment group reaches a “HI” value at least once, the study was considered invalid and repeated. Glucose values were typed into an EXCEL spreadsheet where they were used to calculate glucose AUC and delta AUC post-compound and post-glucose. The glucose excursion curves and the different versions of the AUC's were graphed in GraphPad Prism 5.
Note: All statistics completed in this study were completed using the statistical software package GraphPad Prism 5. Standard procedures for analyzing data sets from screening GPR120 compounds in DIO mouse OGTT's were as listed here below. In addition to the statistics that were run using GraphPad Prism 5, Microsoft Excel was used to calculate the percent changes in AUC from vehicle groups as detailed below.
Change from −30 to 0 BSLN Glucose, Raw Glucose AUC −30 to 90 min, Delta Glucose AUC −30 to 90 min, Raw Glucose AUC 0 to 90 min, Delta Glucose AUC 0 to 90 min were analyzed using Column Statistics Analysis, with mean values used to calculate % change from the vehicle mean group, as well as mean, SEM and/or % change from vehicle, where appropriate; and using One-Way ANOVA w/ a Tukey Post-Test (Comparing All Pairs of Columns) with each treatment group examined to see if it was statistically significant compared to vehicle (*=P<0.05, **=P<0.01, ***=P<0.001).

Another test concerns the target T1, Human GPR120 short form (Homo sapiens, UniProt Q5NUL3).
T1 construct: expressed in transfected cells
T1 sequence (Q5NUL3 1-361): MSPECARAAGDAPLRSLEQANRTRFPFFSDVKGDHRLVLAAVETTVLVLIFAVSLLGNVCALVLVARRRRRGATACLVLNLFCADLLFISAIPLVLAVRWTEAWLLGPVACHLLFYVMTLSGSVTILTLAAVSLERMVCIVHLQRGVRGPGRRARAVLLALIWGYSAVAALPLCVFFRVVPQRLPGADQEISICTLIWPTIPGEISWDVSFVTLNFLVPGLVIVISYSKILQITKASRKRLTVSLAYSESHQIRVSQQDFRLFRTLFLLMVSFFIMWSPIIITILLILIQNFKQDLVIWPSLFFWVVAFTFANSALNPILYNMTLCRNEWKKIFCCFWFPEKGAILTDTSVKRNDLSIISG
Kind of test: Human GPR120 calcium flux assay, Procedure Calcium A. As to conditions: HEK-293 cells, FLIPR, 2500 cells/well; read-out: GPR120 Ca2+ Assay A EC50. In kind it is cell-based. As to the method: These cells are first loaded with the Ca^+2 sensitive dye, Fluo-4 NR. Upon stimulation, intracellular released Ca^+2 can bind to the dye and alter its fluorescence intensity. This increase in fluorescence signal, and thus the flux in intracellular [Ca^2+], is detected and quantitated by fluorescence imaging using a FLIPR reader. The effect of the agonist is measured as a function of concentration and used to calculate an EC50 based upon a response curve.
In this procedure 2500 cells/well were employed.
A Human GPR120 clone (Genbank accession number NM_001195755.1) was placed into the pcDNA3.1 mammalian expression vector carrying the neomycin resistance gene. A stable mammalian cell was generated by placing the above clone into a HEK293 background. […] Cells were split 2 times a week to keep the cells in the log-phase growth.
In preparation for the assay, HEK cells stably transfected with Human GPR120 (2.5K cells per well in 25 uL growth medium) were seeded into 384-well plates and then incubated overnight (37° C., 5% CO2). The next day, the media was changed to 20 μL assay buffer and the cell starved for 1 h at 37° C. The dye loading solution (2× dye) was prepared using 10 mL assay buffer, 100 μL of 250 mM probenecid, 1 bottle of Component A, and 20 μl of dye in DMSO. Twenty μL of the 2× dye loading buffer was then added to each well. The plates were incubated at 37° C. for 30 min, then at room temperature for an additional 15 minutes, before performing the assay on FLIPR.
The assay was performed on a FLIPR plate reader using the following parameters. Baseline was read for 10 seconds at 1 sec intervals. The program was set to transfer 10 μL of ligand from compound plate to cell plate after baseline reading. Aspiration was executed at: 10 μL/sec speed, 4.6 μL height; Dispensing was executed at: 30 μL/sec speed, 45 μL height. After compound addition, each well was read for 300 sec, with measurements collected at 1 sec intervals.
The kinetic data from the FLIPR was based upon a 5 minute window for data collection. The fluorescence of each sample well was used for individual calculations of a normalized RFU value, which was defined as maximum response minus the minimum response. […] The Fitting Equation was: Y=Bottom+(Top-Bottom)/(1+10^((Log EC50−X)*HillSlope)), where X is the log of the concentration and Y is the response.
On the technique in general: A change in cytosolic calcium serves as a functional read-out for many receptors and channels.

Test [2] concerns the target T2, long form of human GPR120 (Homo sapiens, UniProt Q5NUL3).
T2 construct: host or cells: PathHunter CHO-K1 GPR120 β-Arrestin Cell Line
T2 sequence (Q5NUL3 1-377 isoform Q5NUL3-1): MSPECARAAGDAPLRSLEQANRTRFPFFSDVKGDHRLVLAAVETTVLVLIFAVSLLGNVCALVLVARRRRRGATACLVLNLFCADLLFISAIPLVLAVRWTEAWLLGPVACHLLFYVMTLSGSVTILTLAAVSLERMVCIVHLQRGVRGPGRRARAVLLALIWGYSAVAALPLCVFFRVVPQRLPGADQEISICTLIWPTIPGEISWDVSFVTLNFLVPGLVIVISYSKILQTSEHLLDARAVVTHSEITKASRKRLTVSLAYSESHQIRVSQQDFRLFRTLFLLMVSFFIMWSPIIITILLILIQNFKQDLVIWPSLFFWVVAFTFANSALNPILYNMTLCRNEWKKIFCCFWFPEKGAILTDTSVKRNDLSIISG
Kind of test: Human GPR120 DiscoveRx PathHunter beta-arrestin assay, Procedure β-arrestin A. In kind it is cell-based. The settings on record: PathHunter CHO-K1 GPR120 β-Arrestin cells, 3000 cells per well; read-out: hGPR120 β-arrestin A EC50. An excerpt: The binding of an agonist (medium/long chain fatty acids or small molecule agonists) to the G-protein-coupled receptor GPR120 activates phospholipase C, leading to release of intracellular Ca^+2 through the generation of inositol 1,4,5-trisphosphate (InsP3 or IP3). GPR120 activation can also trigger intracellular signaling via recruitment of Beta-Arrestin. In the present method, agonist-induced activation of the human GPR120 receptor is monitored through the use of PathHunter CHO-K1 GPR120 Beta-Arrestin Cell Line engineered by DiscoveRx, as detailed below. The cell lines are designed to co-express both the ProLink/Enzyme Donor (PK)-tagged GPCR and the Enzyme […] (EA)-tagged Beta-Arrestin fusion proteins. Upon GPR120 receptor stimulation/activation, the EA-tagged Beta-Arrestin portion is translocated to the tagged receptor, where the two enzyme fragments are brought within close proximity. Under these conditions, these fragments can interact and form an active Beta-gal enzyme complex through Enzyme Fragment Complementation (EFC). […] This in vitro assay therefore serves to assess compound agonist activity of the GPR120.
In Procedure β-arrestin A, the cell used were PathHunter CHO-K1 GPR120 β-Arrestin Cell Line, expressing the long form of human GPR120 (Genbank accession number NM_181745), with 3000 cells per well.
The selected CHO-K1 GPR120 β-Arrestin cells were cultured in Ham's F12 media supplemented with 10% fetal bovine serum (FBS), 1% Glutamine, 1×p/s, 800 μg/mL G418 and 300 μg/mL Hygromycin B (for selection). Cell stocks were maintained and grown in a sub-confluent state using standard cell culture procedures. The day before the experiment, the cells were harvested with non-enzymatic cell dissociation buffer and re-suspended in complete growth media at the desired concentration. […] The seeded plates were incubated overnight at 37° C.
On the day of the experiment, the Assay Buffer containing (a) HBSS with Ca^++ and Mg^++, (b) 20 mM HEPES, and (c) 0.1% BSA stabilizer (pH 7.4) was prepared. The growth medium was gently removed from the cell plates and 20 μL of Assay Buffer added to each well. The plate was then incubated at 37° C. for 60 min. […] Five μL of compound dilution was then added to each well and the plate incubated at 37° C. for 90 min. The detection reagents were prepared according to the manufacture's instruction. Twelve μL of the detection reagents were added to each well and the plate incubated at room temperature for 60 min.
The % activity relative to the positive control was calculated using the following equation:
The Fitting Equation was: Y=Bottom+(Top-Bottom)/(1+10^((Log EC50−X)*HillSlope)), where X is the log of the concentration and Y is the response.

In the case of `O=C(O)CCc1cc(F)c(OCc2c(-c3ccc(Cl)c(F)c3)nsc2C(F)(F)F)c(F)c1` [Cpd 67, 3-(4-((3-(4-chloro-3-fluorophenyl)-5-(trifluoromethyl)isothiazol-4-yl)methoxy)-3,5-difluorophenyl)propanoic acid], in test [1], the “DIO Lowering Glucose AUC (−30 to 90) @ 10 mg/kg” value (“DIO Lowering Glucose AUC” below) is given as −0.78.

As to `O=C(O)CCc1cc(F)c(OCc2c(-c3ccc(Cl)cc3F)nsc2C(F)(F)F)c(F)c1` [Cpd 74, 3-(4-((3-(4-chloro-2-fluorophenyl)-5-(trifluoromethyl)isothiazol-4-yl)methoxy)-3,5-difluorophenyl)propanoic acid], the “DIO Lowering Glucose AUC” value in test [1] is −0.71. Regarding `O=C(O)CCc1cc(F)c(OCc2c(-c3ccc(C4CC4)cc3)nsc2C(F)(F)F)c(F)c1` [Cpd 160, 3-(4-{[3-(4-Cyclopropylphenyl)-5-(trifluoromethyl)isothiazol-4-yl]methoxy}-3,5-difluorophenyl)propanoic acid], the figures for the EC50 (at Human GPR120 short form; in test [2]) were 200 nM and 116 nM, respectively. Consider `CCc1ccc(-c2nsc(C(F)(F)F)c2COc2ccc(CCC(=O)O)c(F)c2F)cc1` [Cpd 73, 3-(4-((3-(4-ethylphenyl)-5-(trifluoromethyl)isothiazol-4-yl)methoxy)-2,3-difluorophenyl)propanoic acid], for which the “DIO Lowering Glucose AUC” value in test [1] was −0.51. For `CCc1ccc(-c2cc(F)sc2COc2c(F)cc(CCC(=O)O)cc2F)cc1` [Cpd 7], the concentration for a half-maximal effect (EC50) at Human GPR120 short form is 101 nM; in test [2] it was 209 nM. For the molecule `Cc1ccc(-c2nsc(C(F)(F)F)c2COc2c(F)cc(CCC(=O)O)cc2F)c(F)c1` [Cpd 65, 3-(3,5-difluoro-4-[[3-(2-fluoro-4-methylphenyl)-5-(trifluoromethyl)-1,2-thiazol-4-yl]methoxy]phenyl)propanoic acid], the “DIO Lowering Glucose AUC” value in test [1] is listed as −0.61.

As for `CCc1ccc(-c2nsc(C(F)(F)F)c2COc2c(F)cc([C@@H]3C[C@H]3CO)cc2F)cc1` [Cpd 219, [(1R,2R)-2-(4-{[3-(4-Ethylphenyl)-5-(trifluoromethyl)isothiazol-4-yl]methoxy}-3,5-difluorophenyl)cyclopropyl]methanol], the concentration giving a half-maximal response (EC50) at Human GPR120 short form was determined as 690 nM; in test [2], 210 nM. On to `Cc1ccc(-c2nsc(C(F)(F)F)c2COc2c(F)cc(CC(C)C(=O)O)cc2F)c(F)c1` (centres unmarked) [Cpd 76, 3-(3,5-difluoro-4-[[3-(2-fluoro-4-methylphenyl)-5-(trifluoromethyl)-1,2-thiazol-4-yl]methoxy]phenyl)-2-methylpropanoic acid], for which the “DIO Lowering Glucose AUC” value in test [1] is −0.8.

As usually defined, the EC50 is the concentration giving half of the maximal effect.
